According to patent publication US20070270448A1, “Methods of Using and Compositions Comprising a Jnk Inhibitor for the Treatment and Management of Asbestos-Related Diseases and Disorders” (CELGENE CORPORATION, priority 2003, published 2007):

Assays:
[1] = test system: rat ventral mesencephalan neurons; assay: [3H]Dopamine Cell Culture Assay (6-OHDA neurotoxicity); format: cell-based; details: 6-OHDA 30 μM, uptake 22 hrs after exposure
Protocol: Cultures of dopaminergic neurons were prepared according to a modification of the procedure described by Raymon and Leslie (J. Neurochem. 62:1015-1024, 1994). Time-mated pregnant rats were sacrificed on embyronic day 14-15 (crown rump length 11-12 mm) and the embryos removed by cesarean section. The ventral mesencephalon, containing the dopaminergic neurons, was dissected from each embryo. Tissue pieces from approximately 48 embryos were pooled and dissociated both enzymatically and mechanically. An aliquot from the resulting cell suspension was counted and the cells were plated in high glucose DMEM/F12 culture medium with 10% fetal bovine serum at a density of 1×10^5 cells/well of a Biocoat poly-D-lysine-coated 96-well plate. The day following plating was considered 1 day in vitro (DIV). Cells were maintained in a stable environment at 37° C., 95% humidity, and 5% CO2. A partial medium change was performed at 3 DIV. […]
[^3H]Dopamine uptake is used as a measure of the health and integrity of dopaminergic neurons in culture (Prochiantz et al., PNAS 76: 5387-5391, 1979). […] Briefly, cells treated with 6-OHDA in the presence and absence of 5-amino-anthra(9,1-cd)isothiazol-6-one were assessed in the uptake assay 22 hrs after exposure to 6-OHDA. […] Radioactivity was removed and the cultures were washed 3× with ice cold PBS. […]

[2] = Brain-Blood Plasma Distribution In Vivo; parameters: species or system Sprague-Dawley rats; details: rat
Protocol: 5-Amino-anthra(9,1-cd)isothiazol-6-one was administered intravenously (10 mg/kg) into the veins of Sprague-Dawley rats. After 2 hr, blood samples were obtained from the animals and their vascular systems were perfused with approximately 100 mL of saline to rid their brains of blood. The brains were removed from the animals, weighed, and homogenized in a 50 mL conical tube containing 10 equivalents (w/v) of methanol/saline (1:1) using a Tissue Tearer (Fischer Scientific). The homogenized material was extracted by adding 600 μL of cold methanol to 250 μL of brain homogenate vortexed for 30 sec and subjected to centrifugation for 5 min. After centrifugation, 600 μL of the resulting supernatant was transferred to a clean tube and evaporated at room temperature under reduced pressure to provide a pellet. […] The brain homogenate analysis samples, plasma analysis samples, and standard analysis samples were analyzed and compared using HPLC by injecting 100 μL of a sample onto a 5 μm C-18 Luna column (4.6 mm×150 mm, commercially available from Phenomenex of Torrance, Calif.) and eluting at 1 mL/min with a linear gradient of 30% aqueous acetonitrile containing 0.1% trifluoroacetic acid to 90% aqueous acetonitrile containing 0.1% trifluoroacetic acid over 8 minutes and holding at 90% aqueous acetonitrile containing 0.1% trifluoroacetic acid for 3 min. with absorbance detection at 450 nm. […]

[3] = Solubility in aqueous media; format: physicochemical

brain-drug concentration ([2]; 10 mg/kg intravenously, 2 hr post-dose): approximately 65 nmole/g
solubility in aqueous media [3]: limited solubility
Structure (SMILES): Nc1ccc2snc3c2c1C(=O)c1ccccc1-3 [5-amino-anthra(9,1-cd)isothiazol-6-one]
protection of dopaminergic neurons ([3H]dopamine uptake) [1]: protects rat ventral mesencephalan neurons from the toxic effects of 6-OHDA
blood-brain barrier crossing ([2]; following intravenous administration): crosses the blood-brain barrier to a significant extent
